“Also recorded” adds a separate entry of the source.
Key:
HeLa cells = experiment: Morphological evaluation of cell death (acridine orange/ethidium bromide staining, fluorescence microscope); format: cell-based, human
Protocol: After 24 h of seeding 80 000 HeLa cells per well, they were treated with compound dilutions of IC50 and 2 × IC50 in control only nutrient medium was added. After another 24 h of incubation cells were stained with acridine orange AO and ethidium bromide EB (3 μg/mLAO +10 μg/mL EB in PBS), then visualized under a fluorescence microscope (Carl Zeiss, Oberkochen, Germany) PALM MicroBeam with Axio Observer.Z1 using AxioCam MRm (filters Alexa 488 and 568), as described in literature.
Morphological changes were observed after cells were stained with acridine orange and ethidium-bromide. Acridine orange can penetrate into the living cells and emits green fluorescence, while ethidium-bromide enters the cells after cell membrane damage and emits red fluorescence. […] Observed control cells are with unchanged morphology, stained green.

[1] = tested on: HeLa, cervix adenocarcinoma cell line; experiment: MTT cytotoxicity assay, HeLa; format: cell-based; conditions: Homo sapiens, 72 h exposure, mean ± standard deviation
[2] = tested on: A549, non-small cell lung carcinoma cell line; experiment: MTT cytotoxicity assay, A549; format: cell-based; conditions: Homo sapiens, 72 h exposure, mean ± standard deviation
[3] = tested on: MDA-MB-453 human breast cancer cell line; experiment: MTT cytotoxicity assay, MDA-MB-453; format: cell-based; conditions: 72 h exposure, mean ± standard deviation
[4] = 24 h treatment with 2 × IC50 concentration of compound
[5] = 24 h treatment with IC50 dilution of compound

| SMILES | Morphological changes of HeLa cells (cell death type) (HeLa cells; [4]) | Morphological changes of HeLa cells (cell death type) (HeLa cells; [5]) | IC50 [1] [µM] | IC50 [2] [µM] | IC50 [3] [µM] |
| --- | --- | --- | --- | --- | --- |
| COC(=O)Nc1cc(OC)c(OC)c(OC)c1 [Compound 11] | necrotic changes | late apoptotic signs; also recorded: apoptosis occurred | 194.4 ± 1.44 | 200 ± 2.37 | 164 ± 3.93 |
| CC(C)(C)OC(=O)N1CCC(NC(=O)OCc2ccccc2)CC1 [Compound 8] | necrotic changes | late apoptotic signs; also recorded: apoptosis occurred | 158 ± 6.04 | 155.8 ± 0.7 | 112 ± 4.91 |
| COc1cc(NC(=O)OCc2ccccc2)cc(OC)c1OC [Compound 12, benzyl (3,4,5-trimethoxyphenyl)carbamate] | necrotic changes | late apoptotic signs; also recorded: apoptosis occurred | 139 ± 8.28 | 180 ± 2.57 | 108 ± 4.95 |
